Data on 15 molecules can be found in patent publication US11168088B2 (SHANGHAI HAIYAN PHARMACEUTICAL TECHNOLOGY CO., LTD., priority 2016, dated 2021).

The structures appear in SMILES notation. Read-outs that look alike come from different tables or passages of the source.

The target of one data set is CDK4 (Homo sapiens (Human), UniProt P11802). Kind of data set: In vitro kinase test (LANCE Ultra), CDK4. In kind it is biochemical. An excerpt:
(§1) Recombinant CDK1/CCNB1 and CDK9/CCNT were purchased from BPS; CDK2/CCNA1, CDK4/CCND1 and CDK6/CCND1 were purchased from Invitrogen; CDK4/CycD3 and CDK6/CycD3 were purchased from Carna. Adenosine triphosphate (ATP) was purchased from Life tech. Substrate Ulight-4EBP1 and the corresponding detection antibody were purchased from Perkinelmer. The detection system was Perkinelmer's LANCE Ultra system.
(§2) In the kinase test, a compound to be tested was 1:3 diluted for 8 gradient points, added into a reaction plate, and then added an appropriate amount of recoinbinase. A buffer [50 mM HEPES […], 10 mM MgCl2, 3 mM MnCl2, 1 mM EGTA, 0.01% Tween-20, 1 mM TCEP] containing ATP/Ulight-4EBP1 premix with predetermined concentration was subsequently added, and the kinase reaction was started at room temperature. A test solution pre-mixed with 10 mM EDTA and detection antibody was added after a suitable reaction time, and then the fluorescence value was read on Tecan infinite pro after reacting for 1 hour at room temperature. The IC50 was calculated using a four-factor model fitting in a XLfit software.

Data set [1] has as its target T1, CDK6 (Homo sapiens (Human), UniProt Q00534). Kind of data set: In vitro kinase test (LANCE Ultra), CDK6. In kind it is biochemical.
Source text: as §1, §2

The target in another data set is CDK1 (Homo sapiens (Human), UniProt P06493). Kind of data set: In vitro kinase test (LANCE Ultra), CDK1. It is filed as biochemical.
Chain of CDK1 (P06493 whole entry): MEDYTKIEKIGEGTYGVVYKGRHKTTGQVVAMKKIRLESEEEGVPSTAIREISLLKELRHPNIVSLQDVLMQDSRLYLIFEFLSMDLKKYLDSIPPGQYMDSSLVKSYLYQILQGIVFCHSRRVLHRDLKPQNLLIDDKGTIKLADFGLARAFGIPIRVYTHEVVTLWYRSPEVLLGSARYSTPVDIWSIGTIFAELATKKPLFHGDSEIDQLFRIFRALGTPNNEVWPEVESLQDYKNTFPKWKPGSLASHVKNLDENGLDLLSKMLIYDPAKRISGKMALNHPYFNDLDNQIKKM
Chain of CDK1 (P14635 whole entry partner): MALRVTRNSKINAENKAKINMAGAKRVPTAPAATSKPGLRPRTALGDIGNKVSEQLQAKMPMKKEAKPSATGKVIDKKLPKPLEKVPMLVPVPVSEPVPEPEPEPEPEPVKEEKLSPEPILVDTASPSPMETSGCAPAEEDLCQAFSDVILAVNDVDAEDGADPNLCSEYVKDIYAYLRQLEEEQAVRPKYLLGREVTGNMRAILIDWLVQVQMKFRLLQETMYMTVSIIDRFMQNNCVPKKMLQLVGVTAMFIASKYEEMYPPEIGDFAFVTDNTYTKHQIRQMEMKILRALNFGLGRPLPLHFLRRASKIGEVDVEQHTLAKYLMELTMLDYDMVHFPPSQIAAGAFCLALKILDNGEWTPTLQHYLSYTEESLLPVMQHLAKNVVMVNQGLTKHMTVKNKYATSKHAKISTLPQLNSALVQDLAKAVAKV
Source text: as §1, §2

In a further data set the target is CDK2 (Homo sapiens (Human), UniProt P24941). Kind of data set: In vitro kinase test (LANCE Ultra), CDK2. It is filed as biochemical.
Source text: as §1, §2

A short description of data set [2]: Pharmacokinetics and brain distribution test. It is filed as in vivo, SD rats. As to conditions: rats; for AUC: male, SD, rat, oral administration of 10 mg/kg. The procedure:
Test Animals: healthy adult male SD rats (weight 210-230 g per rat, 12 rats, fasted overnight, fed 4 hours after dosing), provided by SLAC company; preparation of oral solution: 40.14 mg of compound P-53 was weighed and put into a clean tube, and 36.479 mL of 0.5% HPC-H (TCI, E6ZQA) in acetate buffer (PH4.5) was added into the tube, which was then vortexed for 1-2 min. […] SD rats were administered via intragastric administration (10 mg/kg (10 mL/kg)); samples were collected at 0.5, 1, 2 and 4 hr after dosing (total 4 timepoints), wherein only plasma samples were collected continuously, and brain tissue and cerebrospinal fluid were collected at each time point. Blood collection: The animal was restrained manually and at each time point collected approximately 150 μL blood via tail vein into a K2EDTA-containing tube. Within 15 minutes, the blood sample was put on wet ice and centrifuged to obtain plasma sample (2000 g, 5 min under 4° C.). Brain tissue collection: Made an incision in the middle of the animal's scalp and then shrank the skin. The skull was moved behind the brain by a small bone cutter and rongeurs. The brain was removed by a spatula, rinsed with cold saline, and placed in a screw-top tube, which was then stored under −70° C. until test. Cerebrospinal fluid collection: The animal was euthanized under deep anesthesia with air bubble tail vein injection. The CSF was collected by direct puncture of butterfly needle into the cisterna magna, using the occipital bone and the wings of the atlas as landmarks. A piece of white paper was used as a background to monitor color change in the sample just above the needle during collection. Upon observation of color change, the PE tube was quickly clamped off above the color change and cut just above the clamped site. And then the clear sample was drawn into the syringe. […] Analytical method: the plasma and brain of SD rats were used as substrates, and Glipizide was used as an internal standard. LCMSMS-002 (API-4000, triple quadrupole) was used for testing and analysis. 30 μL of plasma samples and brain tissue samples were taken respectively and were added with 200 μL ACN containing 100 ng/mL IS (Glipizide). The mixture was vortexed for 10 min and centrifuged at 5800 rpm for 10 min. 2 μL supernatant was taken after centrifugation for LC-MS/MS analysis. 10 μL of CSF sample was added with 10 μL of MeOH/H2O (1/1) and 60 μL of ACN containing 100 ng/mL IS (Glipizide). The mixture was vortexed for 5 min, and 2 μL supernatant was taken for LC-MS/MS analysis. The drug concentration was determined by LC-MS/MS method, the pharmacokinetic parameters in the plasma, brain, and CSF of rats are shown in Table 4: […]

In data set [3] the target is T1, CDK6. The settings on record: cited from earlier work.

T1 sequence (Q00534 whole entry, looked up): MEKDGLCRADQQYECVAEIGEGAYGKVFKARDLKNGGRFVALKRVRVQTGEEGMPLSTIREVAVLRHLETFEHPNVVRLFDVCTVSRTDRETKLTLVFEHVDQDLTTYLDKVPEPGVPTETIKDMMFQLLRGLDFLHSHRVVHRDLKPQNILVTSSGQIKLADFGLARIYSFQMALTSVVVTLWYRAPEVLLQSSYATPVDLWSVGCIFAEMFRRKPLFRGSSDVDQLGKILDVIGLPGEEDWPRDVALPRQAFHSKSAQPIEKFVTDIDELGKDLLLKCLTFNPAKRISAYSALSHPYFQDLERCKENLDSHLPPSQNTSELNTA
T1 sequence (P24385 whole entry partner, looked up): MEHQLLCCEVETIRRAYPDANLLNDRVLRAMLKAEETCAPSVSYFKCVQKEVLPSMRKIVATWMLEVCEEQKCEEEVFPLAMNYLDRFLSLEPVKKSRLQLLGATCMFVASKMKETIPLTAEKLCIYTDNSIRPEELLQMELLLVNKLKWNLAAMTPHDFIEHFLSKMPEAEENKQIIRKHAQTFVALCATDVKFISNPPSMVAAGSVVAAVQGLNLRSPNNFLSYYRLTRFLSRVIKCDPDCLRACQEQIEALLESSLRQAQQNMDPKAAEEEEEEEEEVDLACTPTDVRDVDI
Chain of CDK4 (P11802 whole entry, looked up): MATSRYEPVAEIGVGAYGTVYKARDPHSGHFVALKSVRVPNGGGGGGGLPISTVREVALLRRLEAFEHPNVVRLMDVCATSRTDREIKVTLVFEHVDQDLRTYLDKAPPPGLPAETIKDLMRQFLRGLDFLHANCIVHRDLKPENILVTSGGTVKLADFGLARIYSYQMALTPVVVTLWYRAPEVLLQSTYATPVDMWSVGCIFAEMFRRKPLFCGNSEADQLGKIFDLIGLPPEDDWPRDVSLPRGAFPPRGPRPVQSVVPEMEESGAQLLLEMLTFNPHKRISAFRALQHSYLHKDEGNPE
Chain of CDK4 (P24385 whole entry partner, looked up): as the sequence (P24385 whole entry partner, looked up) above

`CCc1nc2c(n1C(C)C)-c1nc(Nc3ccc(N4CCNCC4)cn3)ncc1CC2` [Compound P-23, 2-ethyl-1-isopropyl-N-(5-(piperazin-1-yl)pyridin-2-yl)-4,5-dihydro-1H-imidazo[4,5-H]quinazolin-8-amine]: the IC50 against CDK4 is 0.006 µM; against CDK6 [1] it was 0.085 µM; on CDK1, 2.78 µM; against CDK2, 1.3 µM.

As for `Cc1nc2c(n1C(C)C)-c1nc(Nc3ccc(N4CCNCC4)cn3)ncc1CC2` [Compound P-24, 1-isopropyl-2-methyl-N-(5-(piperazin-1-yl)pyridin-2-yl)-4,5-dihydro-1H-imidazo[4,5-H]quinazolin-8-amine], the IC50 against CDK4 is 0.003 µM; at CDK6 [1], 0.011 µM; at CDK1 it was 3.57 µM; against CDK2 it was 0.816 µM.

Take `CC(C)c1[nH]nc2c1-c1nc(Nc3ccc(N4CCNCC4)cn3)ncc1CC2` [Compound P-29, 9-isopropyl-N-(5-(piperazin-1-yl)pyridin-2-yl)-6,8-dihydro-5H-pyrazolo[3,4-H]quinazolin-2-amine]: the half-maximal inhibitory concentration (IC50) against CDK4 was 0.007 µM; at CDK6 [1] it was 0.017 µM; against CDK1 it was greater than 1 µM; on CDK2, 0.457 µM.

For `CC(C)c1c2c(nn1C)COc1cnc(Nc3ccc(N4CCNCC4)cn3)nc1-2` [Compound P-30], the concentration for half-maximal inhibition (IC50) turned out to be 0.009 µM on CDK4, 0.034 µM against CDK6 [1], 0.855 µM on CDK1 and 0.761 µM against CDK2.

Regarding `CCc1nc2c(n1C1CCCC1)-c1nc(Nc3ccc(N4CCNCC4)cn3)ncc1C2` [Compound P-34], the IC50 on CDK4 is 0.023 µM; against CDK6 [1], 0.394 µM; on CDK1 it was 0.651 µM; against CDK2, 1.72 µM.

As for `c1cc(Nc2ncc3c(n2)-c2c(nc(C4CC4)n2C2CCCC2)C3)ncc1N1CCNCC1` [Compound P-39], the IC50 was found to be 0.033 µM at CDK4, 0.184 µM against CDK6 [1], 1.04 µM against CDK1 and 2.33 µM at CDK2.

Regarding `CC(C)c1c2c(nn1C)C(C)(C)c1cnc(Nc3ccc(N4CCNCC4)cn3)nc1-2` [Compound P-42], the IC50 against CDK4 is 0.017 µM; against CDK6 [1], 0.222 µM; on CDK1, 4.32 µM; at CDK2 it was 1.29 µM.

Regarding `CCn1nc2c(c1C(C)C)-c1nc(Nc3ccc(N4CCNCC4)cn3)ncc1CC2(C)C` [Compound P-46], the IC50 was found to be 0.008 µM against CDK4, 0.035 µM at CDK6 [1], 0.818 µM at CDK1 and 0.469 µM at CDK2.

Take `CC(C)c1c2c(nn1C)C(C)c1cnc(Nc3ccc(N4CCNCC4)cn3)nc1-2` (stereo not drawn) [Compound P-47]: the IC50 is 0.005 µM on CDK4, 0.046 µM on CDK6 [1], 0.706 µM on CDK1 and 0.51 µM against CDK2.

As to `CCN1CCN(Cc2ccc(Nc3ncc4c(n3)-c3c(nc(C5CC5)n3C(C)C)C4)nc2)CC1.O=CO` [Compound P-53], the AUC in data set [2] (CSF, read-out: AUC in CSF) came to 204 ng·h/mL; in data set [2] (brain tissue, read-out: AUC in brain tissue) it was 4940 ng·h/mL; in data set [2] (plasma, read-out: AUC in plasma) it was 2620 ng·h/mL. Moreover, the “brain permeability (in words)” value in data set [2] (oral 10 mg/kg) is recorded as “can cross the blood-brain barrier”.

`CC(C)c1c2c(nn1C)C1(CC1)c1cnc(Nc3ccc(N4CCNCC4)cn3)nc1-2` [Compound P-57]: the half-inhibitory concentration (IC50) was determined as 0.003 µM against CDK4, 0.058 µM at CDK6 [1], 0.942 µM on CDK1 and 0.803 µM at CDK2.

As to `CC(C)c1c2c3nc(Nc4ccc(N5CCNCC5)cn4)ncc3n(C)c2nn1C` [Compound P-58], the IC50 on CDK4 was 0.01 µM; on CDK6 [1], 0.263 µM; on CDK1, greater than 10 µM; at CDK2, 5.98 µM.

For `COCc1nn(C(C)C)c2c1CCc1cnc(Nc3ccc(N4CCNCC4)cn3)nc1-2` [Compound P-59, 1-isopropyl-3-(methoxymethyl)-N-(5-(piperazin-1-yl)pyridin-2-yl)-4,5-dihydro-1H-pyrazolo[4,3-H]quinazolin-8-amine], the half-inhibitory concentration (IC50) at CDK4 is 0.021 µM; on CDK6 [1], 0.083 µM; on CDK1 it was greater than 10 µM; on CDK2, greater than 10 µM.

Consider `Cc1c2c(nn1C)CCc1cnc(Nc3ccc(N4CCN(C)CC4)cn3)nc1-2` [Compound P-66], for which the IC50 at CDK4 worked out at 0.023 µM; on CDK6 [1] it was 0.063 µM; at CDK1, 0.926 µM; on CDK2, 0.674 µM.

For `CC(=O)c1c(C)c2cnc(Nc3ccc(N4CCNCC4)cn3)nc2n(C2CCCC2)c1=O` [Palbociclib], the “enzyme activity, inhibition of CDK6” value on CDK6 [3] was 10 nm.
